Test results taken from PubChem BioAssay (NCI).
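Assay format: 96-well plates, 48-hour exposure. TGI marks complete inhibition of growth.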

Columns and labels:
Assay in all cases: growth of human tumour cells (NCI), 48 h
[1] = system: KM12 colon
[2] = system: HOP-62 NSCLC
[3] = system: SN12C renal
[4] = system: SK-MEL-28 melanoma
[5] = system: HT29 colon
[6] = system: SNB-75 CNS
[7] = system: NCI/ADR-RES ovarian
[8] = system: CAKI-1 renal
[9] = system: NCI-H23 lung
[10] = system: NCI-H522 lung
[11] = system: UACC-257 melanoma
[12] = system: HL-60(TB) leukemia
[13] = system: A549 NSCLC
[14] = system: NCI-H460 lung
[15] = system: BT-549 breast
[16] = system: OVCAR-3 ovarian
[17] = system: LOX IMVI melanoma
[18] = system: SNB-19 CNS
[19] = system: SR leukemia
[20] = system: EKVX NSCLC
[21] = system: SW-620 colon
[22] = system: SK-MEL-5 melanoma
[23] = system: 786-0 renal
[24] = system: HCT-116 colon
[25] = system: UO-31 renal
[26] = system: SF-268 CNS
[27] = system: IGROV1 ovarian
[28] = system: MALME-3M melanoma
[29] = system: U251 CNS
[30] = system: MOLT-4 leukemia
[31] = system: RXF 393 renal
[32] = system: SF-295 CNS
[33] = system: MDA-MB-231 breast
[34] = system: MDA-MB-435
[35] = system: TK-10 renal
[36] = system: MCF7 breast
[37] = system: OVCAR-8 ovarian
[38] = system: SK-OV-3 ovarian
[39] = system: DU-145 prostate
[40] = system: PC-3 prostate
[41] = system: SF-539 CNS
[42] = system: K-562 leukemia
[43] = system: T-47D breast
[44] = system: OVCAR-5 ovarian
[45] = system: HCT-15 colon
[46] = system: HS 578T breast
[47] = system: NCI-H226 lung
[48] = system: COLO 205 colon
[49] = system: M14 melanoma
[50] = system: UACC-62 melanoma
[51] = system: ACHN renal

C/C(=C\CO)CC/C=C(\C)CNc1ccccc1 was tested, and the TGI [1] was greater than 100 µM, the TGI [2] was greater than 100 µM and the TGI [3] was greater than 100 µM. The TGI [4] was greater than 100 µM, the TGI [5] was 47.9 µM and the TGI [6] was 54.6 µM. It also gave a TGI [7] greater than 100 µM, a TGI [8] greater than 100 µM and a TGI [9] of 27.1 µM. The TGI [10] was 98.5 µM, the TGI [11] was 91.8 µM and the TGI [12] was greater than 100 µM. The TGI [13] was greater than 100 µM, the TGI [14] was greater than 100 µM and the TGI [15] was 55.2 µM. It also gave a TGI [16] greater than 100 µM, a TGI [17] greater than 100 µM and a TGI [18] greater than 100 µM. It also gave a TGI [19] of 79.5 µM, a TGI [20] of 93.7 µM and a TGI [21] greater than 100 µM. It also gave a TGI [22] of 34.1 µM, a TGI [23] greater than 100 µM and a TGI [24] greater than 100 µM. It also gave a TGI [25] greater than 100 µM, a TGI [26] greater than 100 µM and a TGI [27] greater than 100 µM. For the same compound, the TGI [28] was 66.9 µM, the TGI [29] was greater than 100 µM and the TGI [30] was 25.7 µM. The TGI [31] was greater than 100 µM, the TGI [32] was greater than 100 µM and the TGI [33] was greater than 100 µM. It also gave a TGI [34] greater than 100 µM, a TGI [35] of 65.4 µM and a TGI [36] greater than 100 µM. It also gave a TGI [37] greater than 100 µM, a TGI [38] greater than 100 µM and a TGI [39] greater than 100 µM. For the same compound, the TGI [40] was greater than 100 µM, the TGI [41] was greater than 100 µM and the TGI [42] was greater than 100 µM. The TGI [43] was 81 µM, the TGI [44] was greater than 100 µM and the TGI [45] was greater than 100 µM. It also gave a TGI [46] of 97.8 µM, a TGI [47] greater than 100 µM and a TGI [48] greater than 100 µM. For the same compound, the TGI [49] was greater than 100 µM, the TGI [50] was greater than 100 µM and the TGI [51] was greater than 100 µM.
